Like-named read-outs stand apart in the source and are kept apart here.
What was measured:
[1] = tested on: Staphylococcus aureus ATCC 21027; assay: Biofilm formation assay (MTT); assay type: cell-based
Description: (§1) The Gram-positive bacterial Staphylococcus aureus ATCC 21027, Gram-negative bacterial Escherichia coli VKPM (B-7935), and yeast-like fungal Candida albicans KMM 455 strains were fermented on solid medium Mueller Hinton broth with agar (16.0 g/L) in a Petri dish at 37 °C for 24 h. The antimicrobial activity of the compound was tested at concentrations ranging from 100 µM and lower. The effect of the compound on bacterial growth was estimated as described by. Gentamicin and amphotericin B were used as positive controls against S. aureus, E. coli, and C. albicans, and a 1% dimethyl sulfoxide (DMSO) solution in PBS was used as a negative control. The optical density of the bacterial suspension after 18 h was measured at λ = 620 nm. The effect of the compound on biofilm formation for 18 h was tested using MTT reagent (Sigma-Aldrich, St. Louis, MO, USA) in accordance with. The optical density of the obtained solution was measured at λ = 570 nm. A Multiskan FS spectrophotometer (Thermo Scientific Inc., Beverly, MA, USA) was used for both assays. The results were calculated as percentages of the control data and presented as minimal concentrations reduced by 50% of growth or biofilm formation (MIC50).

[2] = tested on: Candida albicans KMM 455; assay: Biofilm formation assay (MTT); assay type: cell-based
Description: as §1

[3] = tested on: Escherichia coli VKPM (B-7935); assay: Biofilm formation assay (MTT); assay type: cell-based
Description: as §1

[4] = tested on: MDA-MB-231 breast cancer cells; assay: Cell viability assay (MTT); assay type: cell-based, human
Source text: (§2) Rat cardiomyocyte H9c2 cells were kindly provided by Prof. Dr. Gunhild von Amsberg from the Martini-Klinik Prostate Cancer Center, University Hospital Hamburg-Eppendorf, Hamburg, Germany. The human HaCaT keratinocyte cell line was kindly provided by Prof. N. Fusenig (Cancer Research Centre, Heidelberg, Germany). Non-cancerous human breast epithelial MCF-10A cells were kindly provided by Dr. Irina Zhitnyak (N. N. Blokhin National Medical Research Center of Oncology, Moscow, Russia). Human breast cancer MCF-7 HTB-22 and MDA-MB-231 cells were obtained from the ATTC (Manassas, VA, USA).
(§3) H9c2 and HaCaT cells were cultured in DMEM with 10% fetal bovine serum and 1% penicillin/streptomycin (BioloT, St. Petersburg, Russia). MCF-7 and MDA-MB-231 cells were cultured in MEM (BioloT, St. Petersburg, Russia) with 10% fetal bovine serum (FBS) and 1% penicillin/streptomycin (BioloT, St. Petersburg, Russia). MCF 10A cells were cultured in DMEM F12 medium (BioloT, St. Petersburg, Russia) supplemented with 20% FBS, 20 ng/mL hrEGF (Sci-Store, Moscow, Russia), and 1% penicillin/streptomycin (BioloT, St. Petersburg, Russia). All cells were cultured at 37 °C in a humidified atmosphere containing 5% CO2.
(§4) H9c2 cells were seeded at a concentration of 3 × 10^3 cells/well. MCF-10A, MCF-7, and MDA-MB-231 cells were seeded at 5 × 10^3 cells/well, and HaCaT cells were seeded at 1 × 10^4 cells/well. The experiments were initiated after 24 h.
(§5) Compounds at concentrations up to 100 µM were added to the wells for 24h or 48 h, and the viability of the cells was measured using an MTT (3-(4,5-dimethylthiazol-2-yl)-2,5-diphenyltetrazolium bromide) assay, which was performed according to the manufacturer’s instructions (Sigma-Aldrich, Munich, Germany). […] DMSO was used as a control. The results are presented as percentages of the control data.

[5] = tested on: MCF-10A breast epithelial cells; assay: Cell viability assay (MTT); assay type: cell-based, human; details: MCF10A
Source text: as §2, §3, §4, §5

[6] = tested on: MCF-7 breast cancer cells; assay: Cell viability assay (MTT); assay type: cell-based, human
Source text: as §2, §3, §4, §5

[7] = tested on: HaCaT keratinocytes; assay: Cell viability assay (MTT); assay type: cell-based, human
Source text: as §2, §3, §4, §5

[8] = Cell viability assay (MTT); assay type: cell-based, human; details: human, read-out: Cytotoxicity IC50
Source text: as §2, §3, §4, §5

[9] = tested on: Staphylococcus aureus ATCC 21027; assay: Antimicrobial assay, growth inhibition (optical density); assay type: cell-based; details: Staphylococcus aureus
Description: as §1

[10] = tested on: Candida albicans KMM 455; assay: as above; assay type: cell-based
Description: as §1

[11] = tested on: Escherichia coli VKPM (B-7935); assay: as above; assay type: cell-based
Description: as §1

[12] = tested on: H9c2 cardiomyocytes; assay: Cell viability assay (MTT); assay type: cell-based, rat
Source text: as §2, §3, §4, §5

[13] = Cell viability assay (MTT); assay type: cell-based, rat; details: rat, H9c2 cardiomyocytes, read-out: Cytotoxicity IC50
Source text: as §2, §3, §4, §5

In the case of COc1c(OC)c(-c2c[nH]c3ccccc23)c(OC)c(OC)c1-c1c[nH]c2ccccc12 [Compound 7, asterriquinol D dimethyl ether], the “Biofilm formation, MIC50” value ([1]; S. aureus, 18 h) is reported as greater than 100 µM, the “effect on S. aureus biofilm formation” value ([1]; at / up to 100 µM) is reported as “did not affect” and the “Biofilm formation, MIC50” value ([2]; C. albicans, 18 h) is reported as greater than 100 µM. For the same compound, the “effect on C. albicans biofilm formation” value ([2]; at 100 µM) was “did not affect”, the “Biofilm formation, MIC50” value ([3]; E. coli, 18 h) was greater than 100 µM and the “effect on E. coli biofilm formation” value ([3]; at / up to 100 µM) was “did not affect”. The cell viability ([4]; MDA-MB-231, 24 h, 1.0 µM) was 102.7 ± 1.6 % of control, the cell viability ([4]; MDA-MB-231, 24 h, 10.0 µM) was 75.9 ± 4.8 % of control and the cell viability ([4]; MDA-MB-231, 24 h, 100.0 µM) was 53.6 ± 4.2 % of control. For the same compound, the cell viability ([4]; MDA-MB-231, 48 h, 1.0 µM) was 99.8 ± 3.7 % of control, the cell viability ([4]; MDA-MB-231, 48 h, 10.0 µM) was 82.9 ± 6.3 % of control and the cell viability ([4]; MDA-MB-231, 48 h, 100.0 µM) was 43.5 ± 2.5 % of control. For the same compound, the cell viability ([5]; 24 h, 1.0 µM) was 102.7 ± 5.1 % of control, the cell viability ([5]; 24 h, 10.0 µM) was 100.2 ± 3.8 % of control and the cell viability ([5]; 24 h, 100.0 µM) was 59.6 ±2.1 % of control. The cell viability ([5]; 48 h, 1.0 µM) was 97.7 ± 1.4 % of control, the cell viability ([5]; 48 h, 10.0 µM) was 93.1 ± 3.6 % of control and the cell viability ([5]; 48 h, 100.0 µM) was 78.9 ± 5.7 % of control. The cell viability ([6]; MCF-7, 24 h, 1.0 µM) was 99.4 ± 4.4 % of control, the cell viability ([6]; MCF-7, 24 h, 10.0 µM) was 65.4 ± 2.9 % of control and the cell viability ([6]; MCF-7, 24 h, 100.0 µM) was 56.0 ± 4.5 % of control. For the same compound, the cell viability ([6]; MCF-7, 48 h, 1.0 µM) was 91.5 ± 6.3 % of control, the cell viability ([6]; MCF-7, 48 h, 10.0 µM) was 70.0 ± 5.2 % of control and the cell viability ([6]; MCF-7, 48 h, 100.0 µM) was 43.9 ± 3.5 % of control. The cell viability ([7]; 24 h, 1.0 µM) was 100.7 ± 3.8 % of control, the cell viability ([7]; 24 h, 10.0 µM) was 85.6 ± 7.6 % of control and the cell viability ([7]; 24 h, 100.0 µM) was 64.1 ± 3.2 % of control. The cell viability ([7]; 48 h, 1.0 µM) was 94.2 ± 8.7 % of control, the cell viability ([7]; 48 h, 10.0 µM) was 78.1 ± 6.4 % of control and the cell viability ([7]; 48 h, 100.0 µM) was 40.1 ± 2.9 % of control. For the same compound, the IC50 at 24 h ([8]; HaCaT keratinocytes, 24 h) was greater than 100 µM, the IC50 at 48 h ([8]; HaCaT keratinocytes, 48 h) was 80.5 ± 1.8 µM and the IC50 at 24 h ([8]; MCF-7 breast cancer cells, MCF-7, 24 h) was greater than 100 µM. It also gave an IC50 at 48 h ([8]; MCF-7 breast cancer cells, MCF-7, 48 h) of 79.1 ± 2.4 µM, an IC50 at 24 h ([8]; MCF-10A breast epithelial cells, MCF10A, 24 h) greater than 100 µM and an IC50 at 48 h ([8]; MCF-10A breast epithelial cells, MCF10A, 48 h) greater than 100 µM. It also gave an IC50 at 24 h ([8]; MDA-MB-231 breast cancer cells, MDA-MB-231, 24 h) greater than 100 µM, an IC50 at 48 h ([8]; MDA-MB-231 breast cancer cells, MDA-MB-231, 48 h) of 85.1 ± 1.5 µM and an MIC50 ([9]; ATCC21027, 18 h, S. aureus, 18 h) greater than 100 µM. For the same compound, the inhibition at 100 µM ([9]; ATCC21027, at 100 µM, read-out: inhibition of S. aureus growth) was 42.2 ± 2.07%, the MIC50 ([10]; Candida albicans, KMM455, 18 h, C. albicans, 18 h) was greater than 100 µM and the “effect on C. albicans growth” value ([10]; at / up to 100 µM) was “did not affect”. The MIC50 ([11]; Escherichia coli, 18 h, E. coli) was greater than 100 µM, the “effect on E. coli growth” value ([11]; at / up to 100 µM) was “did not affect” and the cell viability ([12]; H9c2, 24 h, 1.0 µM) was 101.5 ± 1.3 % of control. For the same compound, the cell viability ([12]; H9c2, 24 h, 10.0 µM) was 76.9 ± 2.8 % of control, the cell viability ([12]; H9c2, 24 h, 100.0 µM) was 59.0 ± 5.3 % of control and the cell viability ([12]; H9c2, 48 h, 1.0 µM) was 102.8 ± 7.6 % of control. For the same compound, the cell viability ([12]; H9c2, 48 h, 10.0 µM) was 76.3 ± 3.9 % of control, the cell viability ([12]; H9c2, 48 h, 100.0 µM) was 32.8 ± 1.4 % of control and the IC50 at 24 h ([13]; H9c2, 24 h) was greater than 100 µM. It also gave an IC50 at 48 h ([13]; H9c2, 48 h) of 69.9 ± 2.3 µM.

Reference: article PMC12471299, “Secondary Metabolites of the Marine Sponge-Derived Fungus Aspergillus subramanianii 1901NT-1.40.2 and Their Antimicrobial and Anticancer Activities” (Marine Drugs, 2025)
